Reference: a melting point compilation (Tetko et al.)

Row | SMILES | melting point [°C]
1 | COc1ncnc(NS(=O)(=O)c2ccc(N)cc2)c1OC | 192
2 | O=S(=O)(Cl)Cc1ccc(Br)cc1 | 117 to 121
3 | COC(=O)CCC(C)C1CCC2C3CCC4CC(OC(C)=O)CCC4(C)C3CC(OC(C)=O)C12C (stereo not drawn) | 116
4 | N#Cc1nc[nH]c1C(N)=O | 276 to 278
5 | Sc1nccc(-c2cccs2)n1 | 206 to 215
6 | CCNS(=O)(=O)C(F)(F)C(F)(F)C(F)(F)C(F)(F)C(F)(F)C(F)(F)C(F)(F)C(F)(F)F | 96
7 | O=C(O)c1cc([N+](=O)[O-])ccc1Br | 180
8 | C=CCc1ccc(O)cc1 | 15.8
9 | Clc1ccc2c(c1)Oc1cc(Cl)ccc1O2 | 151
10 | C/C(=N\Nc1ccc([N+](=O)[O-])cc1)c1nc2c(ccc3ccccc32)nc1C | 271
11 | CCCCCCCCCCCCCCCCCCCCCC(=O)OCC | 50
12 | O=[N+]([O-])/C(Br)=C/c1cccc(/C=C(\Br)[N+](=O)[O-])c1 | 153
13 | Cc1ccccc1NC(=O)C(C)(C)C | 111 to 115
14 | Nc1ccccc1/C=C/c1ccccc1 | 106
15 | FC(F)C(F)(F)CBr | < 25
16 | CCCCN(CCCC)C(=O)COC(=O)c1ccccc1 | 25
17 | CC(C)(C)c1cc(C(=O)O)cc(C(C)(C)C)c1 | 161
18 | CC(=O)O[Si](OC(C)=O)(OC(C)=O)OC(C)=O | 110
19 | ClCC1CN(Cc2ccccc2)CCO1 (stereo not drawn) | 46 to 50
20 | COC(C)COC(C)CO (stereo not drawn) | -83
21 | C=C1CC1CC(N)C(=O)O (stereo not drawn) | 282
22 | O=C(NCc1ccccn1)c1cc([N+](=O)[O-])cc([N+](=O)[O-])c1 | 120
23 | Cc1ccc(I)cc1 | 37.8
24 | N#CC1CN(Cc2ccccc2)CN(Cc2ccccc2)C1 | 80
25 | c1ccc2c(c1)cc1ccc3cc4ccccc4c4ccc2c1c34 | 282
26 | NNc1ncnc2sc3c(c12)CCCC3 | 178 to 179

Row | SMILES | melting point [°C]
27 | CN1CCN(c2cccc([N+](=O)[O-])c2)CC1 | 60 to 62
28 | O=c1oc2ccccc2c(O)c1C1CC(c2ccc(-c3ccc(Br)cc3)cc2)Cc2ccccc21 (stereo not drawn) | 230
29 | N#CCc1nc2ccccc2s1 | 102
30 | BrCCCCCCCCCCCCCCBr | 50.4
31 | O=C(NCC1CCCCN1)c1cc(OCC(F)(F)F)ccc1OCC(F)(F)F (stereo not drawn) | 146
32 | CC(C)(C)[C@H](N)CO | 30 to 34
33 | Nc1c[nH]c(=O)[nH]c1=O | 300
34 | COC(=O)c1scc(C)c1N=C=S | 58 to 60
35 | CCCCC=CC=CC=CCCCCCCCC(=O)O | 71.5
36 | NNC(=S)NCc1cccnc1 | 171 to 173
37 | COC(=O)c1ccc(O)c(Cl)c1 | 107
38 | Cc1ccc(Cl)cc1C(=O)O | 168 to 170
39 | O=C1CC(=O)CC(c2ccco2)C1 | 146 to 149
40 | Cc1cc2c(C#N)c3n(C)c4ccccc4n3c(=O)c2c(C)n1 | 321
41 | CCOc1nc2ccccc2c(=O)n1Cc1cccnc1 | 67 to 70
42 | O=C(c1ccccc1)c1noc(-c2ccc3ccccc3c2)c1S(=O)(=O)c1ccccc1 | 178
43 | ClC1CCC(Cl)CC1 (stereo not drawn) | 18
44 | CC1(C)CNC(=NN=C(C=Cc2ccc(C(F)(F)F)cc2)C=Cc2ccc(C(F)(F)F)cc2)NC1 | 188
45 | FC(F)(F)C(F)(F)C(F)(F)C(F)(F)N(C(F)(F)C(F)(F)C(F)(F)C(F)(F)F)C(F)(F)C(F)(F)C(F)(F)C(F)(F)F | -50
46 | OC(c1ccc(Cl)cc1)c1ccc(Cl)cc1 | 92
47 | NN1C(=O)c2cccc3cccc(c23)C1=O | 265 to 266
48 | SC1=NC2(CCCCC2)NN1c1ccccc1 | 146 to 149
49 | Nc1c(C(=O)O)ccc2c1C(=O)c1ccccc1C2=O | 296
50 | c1ccc(P(c2ccccc2)c2ccc3ccccc3c2-c2c(P(c3ccccc3)c3ccccc3)ccc3ccccc23)cc1 | 283
51 | Nc1c(I)cc([N+](=O)[O-])cc1I | 251 to 256
52 | O=C(O)C1CCC(c2ccc(Cl)cc2)CC1 (stereo not drawn) | 250 to 255

Row | SMILES | melting point [°C]
53 | COc1ccc(C(O)C(=O)O)cc1 (stereo not drawn) | 108 to 111
54 | N#Cc1ccc(F)c(C(F)(F)F)c1 | 68
55 | O=C(O)C1CCN(C(=O)OCc2ccccc2)CC1 | 78 to 81
56 | Cc1cc([N+](=O)[O-])cnc1N | 260
57 | OC(c1c(F)c(F)c(F)c(F)c1F)c1c(F)c(F)c(F)c(F)c1F | 76 to 80
58 | CC(C)(C)OC(=O)N1CCN(Cc2cccc(C=O)c2)CC1 | 67 to 68
59 | CC(=O)OCC1OC(n2cc(I)c(=O)[nH]c2=O)CC1OC(C)=O (stereo not drawn) | 161 to 163
60 | O=[N+]([O-])c1ccccc1S(=O)(=O)Cl | 67
61 | N#CC(CCc1ccc(Cl)cc1)(Cn1cncn1)c1ccccc1 (stereo not drawn) | 126
62 | COc1ccc2c(c1)CC1(CCC(=O)CC1)C2=O | 93
63 | Brc1coc2ccccc12 | 35 to 38
64 | CC(C)(CO)C(O)C(=O)NCCCO (racemic) | 68
65 | CC(=O)NCCCCCCNC(C)=O | 128 to 129
66 | Cc1nn(C)c2c(N)ncnc12 | 238
67 | CC(Br)C(=O)c1ccc(Br)cc1 (stereo not drawn) | 85 to 88
68 | O=[N+]([O-])c1cc(C(F)(F)F)ccc1N1CCOCC1 | 34 to 36
69 | Cc1cc(C)nc(NN)n1 | 166 to 167
70 | FC(F)(F)C(F)(F)C(F)(F)C(F)(F)C(F)(F)C(F)(F)C(F)(F)C(F)(F)C(F)(F)C(F)(F)CCI | 82 to 83
71 | O=c1[nH]c2scc(-c3ccccc3)c2c(=O)n1-c1ccc(Cl)c(Cl)c1 | 274 to 276
72 | COc1ccc2c(c1O)-c1c3c(cc4c1C(C2)N(C)CC4)OCO3 (stereo not drawn) | 200
73 | CC12CCC(=O)N1C(c1ccccc1)CO2 (stereo not drawn) | 125
74 | CCS(=O)(=O)c1cccnc1S(=O)(=O)NC(=O)Nc1nc(OC)cc(OC)n1 | 177
75 | Cc1onc(-c2c(Cl)cccc2Cl)c1CO | 107 to 109
76 | NNC(=O)CNS(=O)(=O)c1cccc2nsnc12 | 151 to 153
77 | CC(C)(C)c1ccc(Oc2ccc([N+](=O)[O-])cc2C=O)cc1 | 134 to 136
78 | Sc1ccc(Cl)cc1 | 61

Row | SMILES | melting point [°C]
79 | Cc1ccc(CO)cc1C | 64
80 | CC1NC(=O)NC1=O (stereo not drawn) | 151
81 | CC(C)(Cl)CCC(C)(C)Cl | 67.5
82 | CC(C)OC=O | -80
83 | CN1C(=O)C=CC1=O | 95
84 | CC1(C)O[C@@H](CP(c2ccccc2)c2ccccc2)[C@@H](CP(c2ccccc2)c2ccccc2)O1 | 86 to 88
85 | O=C1CCN2C(=O)c3ccccc3CC2C1 (stereo not drawn) | 126
86 | CCCCCCCCCC(O)CC (stereo not drawn) | 25
87 | NC(=O)/C(=N\Nc1c(Cl)cccc1Cl)c1nc2ccccc2s1 | 175
88 | CC(C)(C)N(NC(=O)c1ccccc1)C(=O)c1ccccc1F | 184
89 | CC(C)CI | -93
90 | NCc1cc(=O)[nH]o1 | 175
91 | CC(=O)C=C(C)N1CCCC1 | 114 to 116
92 | FC(F)(F)OC(F)(I)C(F)(F)F (stereo not drawn) | 44
93 | O=C(O)C1(C2=CCCCC2)CCCCC1 | 79
94 | O=C(Cl)C(Cl)(c1ccccc1)c1ccccc1 | 47 to 52
95 | Cc1cc(=O)oc2cc(O)c(Cl)cc12 | 278 to 280
96 | C=C1CCC(O)CC1=CC=C1CCCC2(C)C1CCC2C(C)C=CC(C)C(C)C (stereo not drawn) | 116
97 | O=[N+]([O-])c1ccc(NN=Cc2cccc3c(Br)cccc23)c([N+](=O)[O-])c1 | 222
98 | NC(CCCC(N)C(=O)O)C(=O)O (stereo not drawn) | 300
99 | C#CC(C)OC(=O)Nc1cccc(Cl)c1 (stereo not drawn) | 45.5
100 | Cc1c(F)c(F)c(C)c(F)c1F | 36
101 | O=C(O)c1cnc2ccccc2n1 | 206
102 | COc1ccc(C(=O)c2noc(-c3ccccc3)c2S(=O)(=O)c2ccccc2)cc1 | 161
103 | Cc1ccc(NN=C2C(=O)NN=C2C(F)(F)F)cc1 | 230
104 | CC(C)C(C)CCC(C)C1CCC2C3CC=C4CC(O)CCC4(C)C3CCC12C (stereo not drawn) | 158

Row | SMILES | melting point [°C]
105 | CCCCCCCCCCCC(C)=O | 30.5
106 | CCOC(=O)c1cc(C)n(CO)n1 | 71
107 | CC12CCCC1C1CCC3CC(OCc4ccccc4)CCC3(C)C1CC2 (stereo not drawn) | 148
108 | Nc1ccccc1N1CCCCC1 | 46
109 | S=C=Nc1ccccc1I | 39
110 | CCNS(=O)(=O)c1ccc(C)cc1 | 64
111 | O=C(O)c1cc(S(=O)(=O)F)ccc1Cl | 148 to 151
112 | Oc1c(-c2ccc3ccccc3c2O)ccc2ccccc12 | 300
113 | Cn1cccc1C(=O)O | 137
114 | Clc1ccc(C(Cl)(Cl)Cl)cc1 | 5.8
115 | Fc1ccc(S)cc1F | 34 to 38
116 | Fc1ccc(Br)c(CBr)c1 | 35
117 | N#CC(C#N)=c1ccc(=C(C#N)C#N)cc1 | 287 to 289
118 | COc1cc(C(=O)O)cc(OCc2ccccc2)c1OC | 178
119 | O=C(O)c1cc(Cl)sc1Cl | 148
120 | NC(=S)Nc1ccc2c(c1)OCO2 | 198 to 200
121 | CCCOC1CCC2C3CCC4=CC(O)CCC4(C)C3CCC12C (stereo not drawn) | 123 to 127
122 | NCCCNc1ncc(C(F)(F)F)cc1Cl | 60 to 65
123 | CCOC(=O)c1cc2cc([N+](=O)[O-])ccc2o1 | 150 to 155
124 | O=C1/C(=N\Nc2cccc(F)c2)C(C(F)(F)F)=NN1c1ccccc1 | 105 to 107
125 | N=C1NC(=O)C(=NNc2ccc(Br)cc2)S1 | 284
126 | Cc1nc(CO)cs1 | 50
127 | CC(=O)Oc1ccccc1C(=O)Oc1ccccc1C(=O)O | 159
128 | Fc1c(F)c(F)c(I)c(I)c1F | 49 to 50
